# Laboratory results taken from publication PMC5657534 (Nature chemical biology, 2017).
# Biological target: ClbH (full-length) (Escherichia coli, UniProt Q0P7J8)
# Assay: ATP-[…]PPi exchange
# Assay type: biochemical
# Conditions: Mg2+, pH 8.3, room temperature, 1 mM amino acid
# ClbH (full-length), sequence (Q0P7J8 1-1598): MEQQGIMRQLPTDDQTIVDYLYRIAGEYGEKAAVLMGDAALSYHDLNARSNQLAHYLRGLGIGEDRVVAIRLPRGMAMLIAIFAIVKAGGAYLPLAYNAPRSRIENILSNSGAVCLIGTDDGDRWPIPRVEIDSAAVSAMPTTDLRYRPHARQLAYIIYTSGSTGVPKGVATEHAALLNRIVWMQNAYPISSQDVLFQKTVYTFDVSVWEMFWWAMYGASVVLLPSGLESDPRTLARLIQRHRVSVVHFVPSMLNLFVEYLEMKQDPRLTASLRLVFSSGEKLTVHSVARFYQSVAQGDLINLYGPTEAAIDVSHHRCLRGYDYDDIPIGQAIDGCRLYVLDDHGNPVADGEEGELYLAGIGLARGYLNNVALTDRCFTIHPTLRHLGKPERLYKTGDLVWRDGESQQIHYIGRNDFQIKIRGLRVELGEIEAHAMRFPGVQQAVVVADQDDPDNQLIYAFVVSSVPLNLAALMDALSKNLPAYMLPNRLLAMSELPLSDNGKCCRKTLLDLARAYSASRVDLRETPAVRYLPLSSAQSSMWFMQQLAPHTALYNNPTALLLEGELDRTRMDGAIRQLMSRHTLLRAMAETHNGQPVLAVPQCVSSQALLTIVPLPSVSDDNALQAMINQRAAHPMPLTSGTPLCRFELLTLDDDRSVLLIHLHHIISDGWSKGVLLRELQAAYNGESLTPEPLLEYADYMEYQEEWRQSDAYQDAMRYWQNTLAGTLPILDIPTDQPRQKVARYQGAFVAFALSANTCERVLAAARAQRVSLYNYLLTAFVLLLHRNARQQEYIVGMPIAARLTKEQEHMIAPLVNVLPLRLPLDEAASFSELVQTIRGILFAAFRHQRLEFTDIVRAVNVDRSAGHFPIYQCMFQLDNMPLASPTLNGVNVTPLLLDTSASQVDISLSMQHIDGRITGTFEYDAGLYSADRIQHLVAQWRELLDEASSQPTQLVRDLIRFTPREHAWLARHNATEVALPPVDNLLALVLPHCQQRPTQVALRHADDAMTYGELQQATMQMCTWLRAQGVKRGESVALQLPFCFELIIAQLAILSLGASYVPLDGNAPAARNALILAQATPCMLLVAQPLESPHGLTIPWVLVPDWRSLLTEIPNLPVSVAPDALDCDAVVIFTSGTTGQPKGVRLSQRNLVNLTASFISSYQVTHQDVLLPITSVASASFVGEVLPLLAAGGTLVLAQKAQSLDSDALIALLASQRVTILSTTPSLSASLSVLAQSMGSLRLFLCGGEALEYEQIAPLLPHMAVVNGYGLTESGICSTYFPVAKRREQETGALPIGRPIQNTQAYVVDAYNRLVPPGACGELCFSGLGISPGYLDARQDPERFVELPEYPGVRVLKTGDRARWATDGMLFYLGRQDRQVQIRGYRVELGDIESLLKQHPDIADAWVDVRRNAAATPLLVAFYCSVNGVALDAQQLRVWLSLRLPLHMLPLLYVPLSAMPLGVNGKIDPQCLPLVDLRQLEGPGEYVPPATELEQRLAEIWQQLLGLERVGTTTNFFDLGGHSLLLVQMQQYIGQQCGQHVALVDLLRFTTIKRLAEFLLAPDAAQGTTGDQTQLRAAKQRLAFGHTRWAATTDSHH
smiles,measurement,value
N[C@@H](CO)C(=O)O [L-Ser],ATP-[32P]PPi exchange,full-length ClbH activated L-Ser and SAM (Fig. 1b)
